Test results reported in ChEMBL document CHEMBL1201862, “PubChem BioAssay data set” (2004).
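Five concentrations, 48 hours, 96-well plates. The concentration for 50% growth inhibition is given as GI50.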 The source made the active and inactive calls. Cut-off read from the data, not from the text of the source: active = GI50 up to about 1.1 µM and inactive = higher.

Key:
Assay in all cases: inhibition of tumour cell growth, NCI panel, 48 h
SNB-75 = test system: SNB-75
T47D = test system: T47D
LOX IMVI = test system: LOX IMVI
RPMI-8226 = test system: RPMI-8226
CAKI-1 = test system: CAKI-1
M14 = test system: M14
BT-549 = test system: BT-549
HOP-62 = test system: HOP-62
PC-3 = test system: PC-3
HT-29 = test system: HT-29
DU-145 = test system: DU-145
RXF 393 = test system: RXF 393
COLO 205 = test system: COLO 205
HL-60 = test system: HL-60
MDA-MB-231 = test system: MDA-MB-231
SR = test system: SR
KM12 = test system: KM12
NCI-H460 = test system: NCI-H460
NCI-H522 = test system: NCI-H522

Row | Structure (SMILES) | GI50 (SNB-75) | GI50 (T47D) | GI50 (LOX IMVI) | GI50 (RPMI-8226) | GI50 (CAKI-1) | GI50 (M14) | GI50 (BT-549) | GI50 (HOP-62) | GI50 (PC-3) | GI50 (HT-29) | GI50 (DU-145) | GI50 (RXF 393) | GI50 (COLO 205) | GI50 (HL-60) | GI50 (MDA-MB-231) | GI50 (SR) | GI50 (KM12) | GI50 (NCI-H460) | GI50 (NCI-H522)
1 | Cn1cnc2c(sc3nc4ccccc4n32)c1=N | 11.2 µM (inactive) | > 100 µM (inactive) | > 100 µM (inactive) | > 100 µM (inactive) | > 100 µM (inactive) | > 100 µM (inactive) | > 100 µM (inactive) | > 100 µM (inactive) | > 100 µM (inactive) | > 100 µM (inactive) | > 100 µM (inactive) | > 100 µM (inactive) | > 100 µM (inactive) | > 100 µM (inactive) | > 100 µM (inactive) | – | – | – | –
2 | CC(N/N=C(\S)N1CCN(c2ccccn2)CC1)c1nccc2ccccc12 (stereo unspecified) | 6.43 µM (inactive) | < 0.01 µM (active) | 0.804 µM (active) | – | 1.61 µM (inactive) | 0.045 µM (active) | 10.4 µM (inactive) | 2.86 µM (inactive) | 0.589 µM (active) | < 0.01 µM (active) | 1.32 µM (inactive) | 0.908 µM (active) | 0.119 µM (active) | < 0.01 µM (active) | – | < 0.0218 µM (active) | 3.16 µM (inactive) | 0.593 µM (active) | 0.0782 µM (active)
3 | NC1=C(c2nc(-c3ccccc3)cs2)C(c2ccco2)c2c(c3ccccc3oc2=O)O1 (stereo unspecified) | > 100 µM (inactive) | – | > 100 µM (inactive) | – | > 100 µM (inactive) | > 100 µM (inactive) | > 100 µM (inactive) | > 100 µM (inactive) | > 100 µM (inactive) | > 100 µM (inactive) | > 100 µM (inactive) | 40.5 µM (inactive) | > 100 µM (inactive) | > 100 µM (inactive) | > 100 µM (inactive) | > 100 µM (inactive) | – | > 100 µM (inactive) | 76.2 µM (inactive)
4 | O=C(O)c1cc2ccccc2c(/N=N/c2c([N+](=O)[O-])cc([N+](=O)[O-])cc2S(=O)(=O)O)c1O | > 100 µM (inactive) | – | > 100 µM (inactive) | > 100 µM (inactive) | > 100 µM (inactive) | > 100 µM (inactive) | > 100 µM (inactive) | > 100 µM (inactive) | > 100 µM (inactive) | > 100 µM (inactive) | – | > 100 µM (inactive) | > 100 µM (inactive) | – | > 100 µM (inactive) | – | > 100 µM (inactive) | – | > 100 µM (inactive)
5 | O=C(NCCC1CN(S(=O)(=O)C(F)(F)F)c2ccccc21)OCc1ccccc1 (stereo unspecified) | – | – | – | > 100 µM (inactive) | > 100 µM (inactive) | > 100 µM (inactive) | > 100 µM (inactive) | > 100 µM (inactive) | > 100 µM (inactive) | > 100 µM (inactive) | > 100 µM (inactive) | > 100 µM (inactive) | > 100 µM (inactive) | – | > 100 µM (inactive) | > 100 µM (inactive) | 83.4 µM (inactive) | > 100 µM (inactive) | 57 µM (inactive)
6 | CCN(CC)CCCNc1nncc2cc3c([nH]c4ccccc43)c(C)c12 | 13.2 µM (inactive) | 13.3 µM (inactive) | 5.18 µM (inactive) | 12 µM (inactive) | 33.4 µM (inactive) | 20.5 µM (inactive) | 17.9 µM (inactive) | 12.9 µM (inactive) | 8.13 µM (inactive) | 4.03 µM (inactive) | 12 µM (inactive) | – | 8.75 µM (inactive) | 5.02 µM (inactive) | 4.65 µM (inactive) | – | 5.18 µM (inactive) | 5.6 µM (inactive) | 4.15 µM (inactive)
7 | c1ccc(CCc2cccnc2)nc1 | > 100 µM (inactive) | > 100 µM (inactive) | > 100 µM (inactive) | > 100 µM (inactive) | > 100 µM (inactive) | > 100 µM (inactive) | > 100 µM (inactive) | > 100 µM (inactive) | > 100 µM (inactive) | > 100 µM (inactive) | – | > 100 µM (inactive) | > 100 µM (inactive) | – | > 100 µM (inactive) | > 100 µM (inactive) | > 100 µM (inactive) | > 100 µM (inactive) | 45.7 µM (inactive)
8 | CC1CSc2nc3nc(S)nc-3c(O)n2C1 (stereo unspecified) | > 100 µM (inactive) | > 100 µM (inactive) | > 100 µM (inactive) | > 100 µM (inactive) | > 100 µM (inactive) | – | > 100 µM (inactive) | > 100 µM (inactive) | – | – | > 100 µM (inactive) | > 100 µM (inactive) | > 100 µM (inactive) | > 100 µM (inactive) | > 100 µM (inactive) | – | > 100 µM (inactive) | > 100 µM (inactive) | –
9 | O=C1C(Cl)=C(Nc2ccc(S(=O)(=O)O)cc2)C(=O)c2ccccc21 | 67.8 µM (inactive) | – | 30.3 µM (inactive) | 24.7 µM (inactive) | 39.5 µM (inactive) | 21.4 µM (inactive) | 76.2 µM (inactive) | 36.2 µM (inactive) | 23 µM (inactive) | > 100 µM (inactive) | 16.3 µM (inactive) | 19.7 µM (inactive) | 17.4 µM (inactive) | 26.9 µM (inactive) | 60.7 µM (inactive) | 32.6 µM (inactive) | 22 µM (inactive) | 33.6 µM (inactive) | 18.2 µM (inactive)
10 | Cn1c(N/N=C/c2ccccc2)nc(-c2ccc([N+](=O)[O-])cc2)c(C#N)c1=O | 88.5 µM (inactive) | 97.9 µM (inactive) | 61.8 µM (inactive) | 17.7 µM (inactive) | 54.5 µM (inactive) | > 100 µM (inactive) | – | 77.8 µM (inactive) | 59.6 µM (inactive) | 45.7 µM (inactive) | 34.7 µM (inactive) | 53.8 µM (inactive) | 44.2 µM (inactive) | 11 µM (inactive) | 19.5 µM (inactive) | 2.63 µM (inactive) | 26.9 µM (inactive) | 32.1 µM (inactive) | 23.1 µM (inactive)
11 | O=[N+]([O-])c1ccc(OCc2nnc(CCCCCCCCc3nnc(COc4ccc([N+](=O)[O-])cc4)o3)o2)cc1 | > 100 µM (inactive) | – | – | > 100 µM (inactive) | – | > 100 µM (inactive) | > 100 µM (inactive) | – | > 100 µM (inactive) | > 100 µM (inactive) | > 100 µM (inactive) | 25.1 µM (inactive) | > 100 µM (inactive) | – | 32.7 µM (inactive) | – | 55.3 µM (inactive) | > 100 µM (inactive) | > 100 µM (inactive)
12 | COc1ccc(-c2nnc(CCCCCCCCc3nnc(-c4ccc(OC)cc4)o3)o2)cc1 | 27 µM (inactive) | – | 91.4 µM (inactive) | – | > 100 µM (inactive) | > 100 µM (inactive) | 16.7 µM (inactive) | 25.4 µM (inactive) | > 100 µM (inactive) | > 100 µM (inactive) | > 100 µM (inactive) | – | > 100 µM (inactive) | > 100 µM (inactive) | 18.3 µM (inactive) | – | > 100 µM (inactive) | > 100 µM (inactive) | 84.3 µM (inactive)
13 | O=C1C(Cl)C2(CC(/C=C/c3ccccc3)=NN2c2cccc(S(=O)(=O)O)c2)N1c1nc2ccccc2s1 (stereo unspecified) | 15.3 µM (inactive) | 11 µM (inactive) | 2.79 µM (inactive) | 13.8 µM (inactive) | 9.46 µM (inactive) | 17.2 µM (inactive) | 14.8 µM (inactive) | – | 16.1 µM (inactive) | 19.4 µM (inactive) | – | 7.83 µM (inactive) | 19.2 µM (inactive) | 14.9 µM (inactive) | 12.2 µM (inactive) | 13.4 µM (inactive) | 16.3 µM (inactive) | 22.8 µM (inactive) | 6.53 µM (inactive)
14 | CSc1ncnc2c1ncn2CCC(=O)OC(C)(C)C | > 100 µM (inactive) | > 100 µM (inactive) | > 100 µM (inactive) | > 100 µM (inactive) | > 100 µM (inactive) | > 100 µM (inactive) | – | > 100 µM (inactive) | > 100 µM (inactive) | > 100 µM (inactive) | > 100 µM (inactive) | > 100 µM (inactive) | > 100 µM (inactive) | > 100 µM (inactive) | > 100 µM (inactive) | > 100 µM (inactive) | > 100 µM (inactive) | > 100 µM (inactive) | > 100 µM (inactive)
15 | Cc1cn(CC2=NCC(C)(C)CN2)c(=O)[nH]c1=O | > 100 µM (inactive) | > 100 µM (inactive) | > 100 µM (inactive) | – | – | > 100 µM (inactive) | > 100 µM (inactive) | > 100 µM (inactive) | > 100 µM (inactive) | > 100 µM (inactive) | > 100 µM (inactive) | > 100 µM (inactive) | > 100 µM (inactive) | > 100 µM (inactive) | > 100 µM (inactive) | – | – | > 100 µM (inactive) | > 100 µM (inactive)
16 | Cc1ccc2[nH]c(=N/c3ccccc3C)/c(=N\c3ccccc3C)[nH]c2c1 | 34.7 µM (inactive) | 19.3 µM (inactive) | 20 µM (inactive) | > 100 µM (inactive) | 27.9 µM (inactive) | 43.8 µM (inactive) | – | 40.2 µM (inactive) | 31.3 µM (inactive) | 23 µM (inactive) | 41.1 µM (inactive) | 17.3 µM (inactive) | 16.1 µM (inactive) | 46.2 µM (inactive) | 17.1 µM (inactive) | > 100 µM (inactive) | 17.6 µM (inactive) | 17.3 µM (inactive) | 10.2 µM (inactive)
17 | COC(=O)C1=C(CCCCO[Si](C)(C)C(C)(C)C)NC(=O)N2[C@H](CCOCc3ccccc3)CC[C@@H]12 | 43.7 µM (inactive) | 35.4 µM (inactive) | – | 49.4 µM (inactive) | 34 µM (inactive) | 58.3 µM (inactive) | 45.8 µM (inactive) | > 100 µM (inactive) | 26.9 µM (inactive) | – | 75.2 µM (inactive) | – | 27.9 µM (inactive) | – | 44.9 µM (inactive) | – | 49.5 µM (inactive) | 38 µM (inactive) | 15.5 µM (inactive)
